Data reported in US7495018B2, “Substituted 1,3-thiazole compounds, their production and use” (Takeda Pharmaceutical Company Limited, priority 2000, dated 2009).

Target: T1, human p38 MAP kinase (Homo sapiens, UniProt Q16539)
T1 construct: FLAG (N); made in house; host or cells: Sf-21 insect cells, co-infected with baculoviruses BAC-HP38 and BAC-caMKK3
Experiment: p38 MAP kinase inhibition, 32P incorporation into Myelin Basic Protein
Format: biochemical
Details: active type p38 MAP kinase, Myelin Basic Protein substrate, 60 minutes at 30° C.; read-out: IC50 (concentration inhibiting 50% of 32P incorporation into the acid insoluble fraction)
Method: (1) Cloning of Human p38 MAP Kinase Gene and Preparation of Recombinant Baculovirus
(3) Preparation of Active Type p38 MAP Kinase
Sf-21 cells were inoculated on 100 mL Sf-900II SF medium (GIBCOBRL) to give 1×10^6 cells/mL, then, cultured for 24 hours at 27° C. Each 0.2 mL of virus stocks BAC-HP38 and BAC-caMKK3 of the recombinant baculovirus were added, then, cultured for further 48 hours. Cells were separated from the culture solution by centrifugal separation (3000 rpm, 10 min.), then, washed with PBS twice. The cells were suspended in 10 mL of Lysis buffer (25 mM HEPES (pH7.5), 1% TritonX, 130 mM NaCl, 1 mM EDTA, 1 mM DTT, 25 mM β-glycerophosphate, […], 1 mM APMSF, 1 mM Sodium orthovanadate), then, treatment by Homogenizer (POLYTRON) for 2 minutes at 20000 rpm was performed twice to lyse the cells. […]
(4) To 37.5 μL of a reaction solution (25 mM HEPES (pH 7.5), 10 mM Magnesium Acetate) containing 260 ng of active type p38 MAP kinase and 1 μg of Myelin Basic Protein was added 2.5 μL of a sample compound dissolved in DMSO, then, the mixture was kept at 30° C. for 5 minutes. […] After drying for 60 minutes at 45° C., 40 μL of Microscint 0 (Packard Japan) was added, and radiation activity was measured by Top Counter (Packard Japan). […]

T1 sequence (Q16539 whole entry): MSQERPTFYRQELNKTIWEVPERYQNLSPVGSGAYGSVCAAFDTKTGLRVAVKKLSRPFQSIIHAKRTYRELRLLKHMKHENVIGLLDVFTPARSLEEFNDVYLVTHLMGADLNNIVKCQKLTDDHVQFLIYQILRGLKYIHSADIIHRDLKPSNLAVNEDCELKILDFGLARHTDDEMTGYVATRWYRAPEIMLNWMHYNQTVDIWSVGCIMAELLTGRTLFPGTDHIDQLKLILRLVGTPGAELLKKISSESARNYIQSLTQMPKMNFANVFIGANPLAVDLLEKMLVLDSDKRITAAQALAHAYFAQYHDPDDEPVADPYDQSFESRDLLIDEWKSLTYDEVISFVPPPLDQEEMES

IC50	Compound
17 nM	Cc1cccc(-c2nc(N(C)C(=O)c3ccc(C)nc3)sc2-c2ccnc(NC3CCCC3)c2)c1 [Example 46-4]

Tested on: not given
Experiment: not given
Details: not given

Compound	melting point
Cc1cc(C)cc(-c2nc(-c3ccc(S(C)(=O)=O)cc3)sc2-c2ccnc(C)c2)c1 [Example Compound 58-1, 4-(3,5-dimethylphenyl)-5-(2-methyl-4-pyridyl)-2-(4-methylsulfonylphenyl)-1,3-thiazole]	196 to 197 °C
Cc1cc(C)cc(-c2nc(-c3ccc(S(C)(=O)=O)cc3)sc2-c2cc(C)nc(C)c2)c1 [Example Compound 58-3, 4-(3,5-dimethylphenyl)-5-(2,6-dimethyl-4-pyridyl)-2-(4-methylsulfonylphenyl)-1,3-thiazole]	217 to 220 °C
Cc1cccc(-c2nc(-c3ccc(S(C)(=O)=O)cc3)sc2-c2ccnc(F)c2)c1 [Example Compound 58-4, 5-(2-fluoro-4-pyridyl)-4-(3-methylphenyl)-2-(4-methylsulfonylphenyl)-1,3-thiazole]	195 to 199 °C
CCC(=O)Nc1cc(-c2sc(-c3ccc(S(C)(=O)=O)cc3)nc2-c2cccc(Cl)c2)ccn1 [Example Compound 58-7, N-[4-[4-(3-chlorophenyl)-2-(4-methylsulfonylphenyl)-1,3-thiazol-5-yl]-2-pyridyl]propionamide]	224 to 225 °C
Cc1cccc(-c2nc(NC(=O)NOc3ccccc3)sc2-c2ccnc(C)c2)c1 [Example Compound 64, N-[4-(3-methylphenyl)-5-(2-methyl-4-pyridyl)-1,3-thiazol-2-yl]-N′-phenyloxyurea]	154 to 155 °C
Cc1cccc(-c2nc(-c3ccc(S(C)(=O)=O)cc3)sc2-c2cc[n+]([O-])c(C)c2)c1 [Example Compound 68-1, 4-[4-(3-methylphenyl)-2-(4-methylsulfonylphenyl)-1,3-thiazol-5-yl]-2-methylpyridine N-oxide]	197 to 198 °C
CCc1nc(-c2cccc(Br)c2)c(-c2ccnc(NC(=O)OC(C)(C)C)c2)s1 [Example Compound 75-1, 4-(3-bromophenyl)-5-[2-(tert-butoxycarbonylamino)-4-pyridyl]-2-ethyl-1,3-thiazole]	172 to 174 °C
CCc1nc(-c2cccc(Br)c2)c(-c2ccnc(N)c2)s1 [Example Compound 75-2, 4-[4-(3-bromophenyl)-2-ethyl-1,3-thiazol-5-yl]-2-pyridylamine]	132 to 134 °C
CCc1nc(-c2ccccc2)c(-c2ccnc(NC(=O)OC(C)(C)C)c2)s1 [Example Compound 79-1, 5-[2-(tert-butoxycarbonylamino)-4-pyridyl]-2-ethyl-4-phenyl-1,3-thiazole]	154 to 155 °C
CCc1nc(-c2ccccc2)c(-c2ccnc(NC(C)=O)c2)s1 [Example Compound 82-1, N-[4-(2-ethyl-4-phenyl-1,3-thiazol-5-yl)-2-pyridyl]acetamide]	175 to 176 °C

Other lines, results leading:

melting point	Compound
176 to 177 °C	Cc1cccc(-c2nc(N(C)C(=O)c3ccc(C)nc3)sc2-c2ccnc(NC3CCCC3)c2)c1 [Example 46-4]
182 to 184 °C	Cc1cccc(-c2nc(-c3ccc(S(C)(=O)=O)cc3)sc2-c2cc(C)nc(C)c2)c1 [Example Compound 58-2, 5-(2,6-dimethyl-4-pyridyl)-4-(3-methylphenyl)-2-(4-methylsulfonylphenyl)-1,3-thiazole]
190 to 192 °C	Cc1cc(-c2sc(-c3ccc(S(C)(=O)=O)cc3)nc2-c2ccc(F)cc2)ccn1 [Example Compound 58-5, 4-(4-fluorophenyl)-5-(2-methyl-4-pyridyl)-2-(4-methylsulfonylphenyl)-1,3-thiazole]
216 to 217 °C	CC(=O)Nc1cc(-c2sc(-c3ccc(S(C)(=O)=O)cc3)nc2-c2cccc(Cl)c2)ccn1 [Example Compound 58-6, N-[4-[4-(3-chlorophenyl)-2-(4-methylsulfonylphenyl)-1,3-thiazol-5-yl]-2-pyridyl]acetamide]
122 to 123 °C	CC(C)(C)C(=O)Nc1cc(-c2sc(-c3ccc(S(C)(=O)=O)cc3)nc2-c2cccc(Cl)c2)ccn1 [Example Compound 58-8, N-[4-[4-(3-chlorophenyl)-2-(4-methylsulfonylphenyl)-1,3-thiazol-5-yl]-2-pyridyl]pivalamide]
156 to 158 °C	Cc1cccc(-c2nc(NC(=O)OCCCl)sc2-c2ccnc(C)c2)c1 [Example Compound 62, 2-chloroethyl[4-(3-methylphenyl)-5-(2-methyl-4-pyridyl)-1,3-thiazol-2-yl]carbamate]
200 to 201 °C	Cc1cccc(-c2nc(N3CCNC3=O)sc2-c2ccnc(C)c2)c1 [Example Compound 66, 1-[4-(3-methylphenyl)-5-(2-methyl-4-pyridyl)-1,3-thiazol-2-yl]imidazolidin-2-one]

Tested on: TNF-α production in THP-1 cells
Experiment: Inhibitory activity of TNF-α production in LPS-stimulated THP-1 cells
Format: cell-based
Details: Homo sapiens, LPS 5 μg/mL, 4 hours, TNF-α by ELISA, read-out: IC50 (concentration inhibiting 50% of TNF-α production)
Method: Measurement of Inhibitory Activity of TNF-α Production
THP-1 cells cultured in a PRMI 1640 medium (Life Technologies, Inc., USA) containing 1% inactivated fetal bovine serum (Life Technologies, Inc.) and 10 mM HEPES (pH 7.5) were inoculated on a 96 well plate to give 1×10^5 cells/well, then, 1 μL of a sample compound dissolved in DMSO was added. After incubation for 1 hour at 37° C. in a CO2 incubator, LPS (Wako Pure Chemical Industries Ltd.) was added to give a final concentration of 5 μg/mL. After incubation for 4 hours at 37° C. in a CO2 incubator, the supernatant was obtained by centrifugal separation. The TNF-α concentration in the supernatant was measured by ELISA (R&D Systems, Quantikine Kit). The concentration (IC50 value) of a sample compound necessary for inhibiting 50% of TNF-α production was calculated by PRISM 2.01 (GraphPad Software).

IC50	Compound
120 nM	CCc1nc(-c2cccc(Cl)c2)c(-c2ccnc(NC(C)=O)c2)s1 [Example 30-2, N-[4-[4-(3-chlorophenyl)-2-ethyl-1,3-thiazol-5-yl]-2-pyridyl]acetamide]
55 nM	CCc1nc(-c2cccc(Cl)c2)c(-c2ccnc(NC3CCCCC3)c2)s1 [Example 36-10, 4-[4-(3-chlorophenyl)-2-ethyl-1,3-thiazol-5-yl]-N-cyclohexyl-2-pyridylamine]
82 nM	Cc1cccc(-c2nc(N(C)C(=O)c3ccc(C)nc3)sc2-c2ccnc(NC3CCCC3)c2)c1 [Example 46-4]
21 nM	CCC(=O)Nc1cc(-c2sc(-c3ccc(S(C)(=O)=O)cc3)nc2-c2cccc(Cl)c2)ccn1 [Example 58-7, N-[4-[4-(3-chlorophenyl)-2-(4-methylsulfonylphenyl)-1,3-thiazol-5-yl]-2-pyridyl]propionamide]
